Reference: US7323441B2, “Use of lupin conglutin for the treatment of type II diabetes” (Indena S.p.A., priority 2003, dated 2008)

System: glucose plasma levels
Test: Hypoglycemizing activity in rats after oral glucose administration (2 g/kg)
Type: in vivo, rat
Conditions: 50 mg/kg os, 30 min before glucose 2 g/kg os; male CD rats; AUC 0 to 90 min; mean±M.S.E.
Method: Male CD strain rats, of the starting weight 275-300 g, were used. The animals were housed in makrolon cages in environment with automatic control of light (12 hour light/12 hour darkness cycles), temperature (21±1° C.) and humidity (60±5%).
Lupin conglutin gamma prepared as reported in Example 2 was used. 100 rats (divided into in 5 groups of […] animals each) were pre-treated (time−30 min) with: • Group 1: carrier (1% carboxymethylcellulose [CMC]; 2 ml/kg os) • Group 2: lupin conglutin gamma (50 mg/kg os in 1% CMC) • Group 3: lupin conglutin gamma (100 mg/kg os in 1% CMC) • Group 4: lupin conglutin gamma (200 mg/kg os in 1% CMC) • Group 5: metformin (50 mg/kg os in 1% CMC) […]
Immediately before the glucose administration (time 0 min) and 30, 60 and 90 min after the glucose administration, all the animals (n=5 rats for each time) were anaesthetized with sodium thiopental (50 mg/kg i.p.) and 5 ml of blood was drawn from the vena cava. Blood samples were collected in syringes containing EDTA (7.5 mM) as anticoagulant, and immediately subjected to centrifugation (2000 g×10 min at 4° C.) to obtain the plasma necessary for the enzymatic quantitation of glucose.
The quantitation of the glucose in rat plasma was carried out in triplicate by enzymatic assay (absorbance at 505 nm) and the glucose concentration was expressed in mg/dl. […]

CN(C)C(=N)N=C(N)N [metformin]
area under the curve (AUC) of glucose plasma levels: 1565±201
